Data as given in patent EP0076973A1, “A new dioxolanic compound and its method of preparation; a new dioxolanic amine with pharmacological activity, its method of preparation, and the pharmaceutical compositions containing them” (Investigacion Tecnica y Aplicada, S.A., priority 1981, dated 1983).
Where a name gives a salt, the structure may show the parent alone. Read-outs that look alike come from different tables or passages of the source.

Tests used:
male NMRI mouse = assay: Anti-arrythmic activity: fibrillation by chloroform in the mouse; assay type: in vivo; details: for ED50: Mus musculus
Excerpt: Tables 5 and 6 show the anti-arrithmic activity of the ITA 362 in the male NMRI mouse by oral and intraperitoneal route using the fibrillation test by chloroform in the mouse. […] The activity of the two forms of maleate described in the example 2 were studied and which in the table are subtitled as isomer A corresponding to the first fraction obtained in the aforementioned example, and isomer B corresponding to the second fraction.

hind quarters of rats = assay: Vasodilatory activity: perfusion of the hindquarters of rats with a hyperpotasemic solution; assay type: in vivo, rat; set-up: ED 25: unit not given here
Excerpt: In the table 3 is shown the results of the vasodilatory activity of the ITA 362 in the perfusion test of the hindquarters of rats with a hyperpotasemic solution. (F.N.Fastier, F.M. Smirk. Jl. Pharmacolog. Exp. Therapy. 89. 256, 1947).

[1] = Acute toxicity (LD50, method of Litchfield and Wilcoxon) in the rat; details: in vivo
Experimental: (§1) The respective lethal dose 50 was calculated according to the method of Litchfield and Wilcoxon (Jl. Pharmacol. Exptl. 96 99, 1949 ).

[2] = Acute toxicity (LD50, method of Litchfield and Wilcoxon) in the mouse; details: in vivo
Experimental: as §1

conscious dog = assay: Anti-angina activity: amplitude increase protection of the T wave by vasopression in the conscious dog; assay type: in vivo
Excerpt: The antiangina activity was also compared with that of the nitroglycerine by means of the amplitude increase protection test of the T wave for vasopression in the conscious dog. ( A.Lindner, M.London, G.Werner, Scheiz. Med.
Wsohr. 83-,- 360, 1953; J.Papp, L. Szekeres. Arch. Int. Pharmacodyn. 160, 1, 1966 ).

[3] = ip, no unit given for ED50 (doses in mg/kg), read-out: ED50 and confidence limits p < 0,05
[4] = po, no unit given for ED50 (doses in mg/kg), (*) = calculation of limits is not possible, read-out: ED50 and confidence limits p<0,05
[5] = ip, intraperitoneal administration, read-out: LD50 and confidence limits
[6] = oral administration, read-out: LD50

| SMILES | ED50 (male NMRI mouse; [3]) [mg/kg] | % protection versus fibrillation (male NMRI mouse; i.p. 25 mg/kg) [%] | % protection versus fibrillation (male NMRI mouse; i.p. 50 mg/kg, 50 mg/kg) [%] | % protection versus fibrillation (male NMRI mouse; i.p. 100 mg/kg, 100 mg/kg) [%] | % protection versus fibrillation (male NMRI mouse; i.p. 12,5 mg/kg) [%] | % protection versus fibrillation (male NMRI mouse; p.o. 25 mg/kg, 25 mg/kg) [%] | % protection versus fibrillation (male NMRI mouse; p.o. 50 mg/kg, 50 mg/kg) [%] | % protection versus fibrillation (male NMRI mouse; p.o. 100 mg/kg, 100 mg/kg) [%] | % protection versus fibrillation (male NMRI mouse; p.o. 12,5 mg/kg) | ED50 (male NMRI mouse; [4]) [mg/kg] | % drop in pressure (hind quarters of rats; concentration 10^-5 g/ml) | % drop in pressure (hind quarters of rats; concentration 10^-6 g/ml) | % drop in pressure (hind quarters of rats; concentration 10^-7 g/ml) | % drop in pressure (hind quarters of rats; concentration 10^-8 g/ml) | % Prot. (conscious dog; dose i.v. 1 mg/kg, 1 mg/kg) | further results |
| --- | --- | --- | --- | --- | --- | --- | --- | --- | --- | --- | --- | --- | --- | --- | --- | --- |
| CCCCNCC1COC(c2ccc(Cl)cc2)(c2cc3ccccc3o2)O1 (single isomer, unassigned) [ITA 362 maleate (isomer A)] | 35.3 | 35 | 60 | 70 | 35 | 35 | 70 | 70 | 25% |  |  |  |  |  |  |  |
| CCCCNCC1COC(c2ccc(Cl)cc2)(c2cc3ccccc3o2)O1 (single isomer, unassigned) [ITA 362 maleate (isomer B)] |  | 35 | 70 | 95 | 40 | 55 | 45 | 85 | 35% | 27.6 |  |  |  |  |  | ED50 and confidence limits p < 0,05 (male NMRI mouse; route i.p., no unit given for ED50 (doses in mg/kg)): 24,5 (16,11 37,20) |
| CCCCNCC1COC(c2ccc(Cl)cc2)(c2cc3ccccc3o2)O1 (stereo not shown) [ITA 362 citrate] | 41.4 | 40 |  |  | 25 |  |  |  | 31,6% | 43.2 | 33,6% | 16,3% | 12,7% | 12,5% |  | ED 25 (hind quarters of rats; from concentrations 10^-5 to 10^-8 g/ml, correlation r printed in the same cell): 2,61; % protection versus fibrillation (male NMRI mouse; i.p. 50 mg/kg): 35%; % protection versus fibrillation (male NMRI mouse; i.p. 100 mg/kg): 84,2%; % protection versus fibrillation (male NMRI mouse; p.o. 25 mg/kg): 45%; % protection versus fibrillation (male NMRI mouse; p.o. 50 mg/kg): 55%; % protection versus fibrillation (male NMRI mouse; p.o. 100 mg/kg): 55%; % protection versus fibrillation (male NMRI mouse; p.o. 3,125 mg/kg): 10%; % protection versus fibrillation (male NMRI mouse; p.o. 6,25 mg/kg): 42,1% |
| CCCCNCC1COC(c2ccc(Cl)cc2)(c2cc3ccccc3o2)O1 (stereo not shown) [ITA 362 maleate, 2-(2'-benzofuranil) -4-butylaminomethyl--2-p-chlorophenyl-1,3-dioxolane, maleate] |  |  |  |  |  |  |  |  |  |  |  |  |  |  | 46,8% | LD50 [1, 5]: 105 mg/kg; LD50 [1, 6]: > 4000 mg/kg; LD50 [2, 5]: 106 mg/kg; LD50 [2, 6]: > 4000 mg/kg; Control quot. treatment (conscious dog; dose i.v. 1 mg/kg): 1,893 |
| CCCCNCC1COC(c2ccc(Cl)cc2)(c2cc3ccccc3o2)O1 (stereo not shown) [ITA 362, 2-(2' -benzofuranil)-4-n-butylaminomethyl-2-p-chlorophenyl-1,3-dioxolane] |  |  |  |  |  |  |  |  |  |  |  |  |  |  | ~50% |  |
| O=[N+]([O-])OCC(CO[N+](=O)[O-])O[N+](=O)[O-] [Nitro-glycerine, nitroglycerine, reference compound] |  |  |  |  |  |  |  |  |  |  | 25,4% | 24,7% | 17,5% | 10,9% |  | % Prot. (conscious dog; dose i.v. 0,4 mg/kg): 28,9%; Control quot. treatment (conscious dog; dose i.v. 0,4 mg/kg): 1,520 |
